Patent publication US10208019B2, “GLP-1 receptor agonists and uses thereof” (Pfizer Inc., priority 2016, dated 2019)

How the values were obtained:
human GLP-1R [1] = biological target: human GLP-1R (Homo sapiens (Human), UniProt P43220, L260F); experiment: CHO GLP-1R Clone C6—Assay 2: HTRF cAMP cell-based functional agonist assay (low GLP-1R density); settings: for EC50: CHO GLP-1R Clone C6, cAMP HTRF, geometric mean; for Emax: CHO GLP-1R Clone C6, relative to saturating concentration of full agonist GLP-1 (1 μM), arithmetic mean, read-out: Assay 2 Emax (%)
Procedure: GLP-1R-mediated agonist activity was determined with a cell-based functional assay utilizing an HTRF (Homogeneous Time-Resolved Fluorescence) cAMP detection kit (cAMP HI Range Assay Kit; Cis Bio cat #62AM6PEJ) that measures cAMP levels in the cell. The method is a competitive immunoassay between native cAMP produced by the cells and exogenous cAMP labeled with the dye d2. The tracer binding is visualized by a mAb anti-cAMP labeled with Cryptate. The specific signal (i.e. energy transfer) is inversely proportional to the concentration of cAMP in either a standard or an experimental sample.
The human GLP-1R coding sequence (NCBI Reference Sequence NP_002053.3, including naturally-occurring variant Leu260Phe) was subcloned into pcDNA5-FRT-TO and a clonal CHO cell line stably expressing a low receptor density was isolated using the Flp-In™ T-Rex™ System, as described by the manufacturer (ThermoFisher).
Cells were removed from cryopreservation, re-suspended in 40 mL of Dulbecco's Phosphate Buffered Saline (DPBS-Lonza Cat #17-512Q) and centrifuged at 800×g for 5 min at 22° C. The DPBS was aspirated, and the cell pellet was re-suspended in 10 mL of complete growth medium (DMEM:F12 1:1 Mixture with HEPES, L-Gln, 500 mL (DMEM/F12 Lonza Cat #12-719F), 10% heat inactivated fetal bovine serum (Gibco Cat #16140-071), 5 mL of 100× Pen-Strep (Gibco Cat #15140-122), 5 mL of 100× L-Glutamine (Gibco Cat #25030-081), 700 μg/mL Hygromycin (Invitrogen Cat #10687010) and 15 μg/mL Blasticidin (Gibco Cat #R21001). A 1 mL sample of the cell suspension in growth media was counted on a Becton Dickinson ViCell to determine cell viability and cell count per mL. The remaining cell suspension was then adjusted with growth media to deliver 1600 viable cells per well using a Matrix Combi Multidrop reagent dispenser, and the cells were dispensed into a white 384 well tissue culture treated assay plate (Corning 3570). The assay plate was then incubated for 48 h at 37° C. in a humidified environment (95% O2, 5% CO2)
Varying concentrations of each compound to be tested (in DMSO) were diluted in assay buffer [HBSS with Calcium/Magnesium (Lonza/BioWhittaker cat #10-527F)/0.1% BSA (Sigma Aldrich cat #A7409-1L)/20 mM HEPES (Lonza/BioWhittaker cat #17-737E)] containing 100 μM 3-isobutyl-1-methylxanthin (IBMX; Sigma cat #15879). The final DMSO concentration in the compound/assay buffer mixture is 1%.
After 48 h, the growth media was removed from the assay plate wells, and the cells were treated with 20 μL of the serially diluted compound in assay buffer for 30 min at 37° C. in a humidified environment (95% O2, 5% CO2). Following the 30 min incubation, 10 μL of labeled d2 cAMP and 10 μL of anti-cAMP antibody (both diluted 1:20 in cell lysis buffer; as described in the manufacturer's assay protocol) were added to each well of the assay plate. The plates were then incubated at room temperature and after 60 minutes, changes in the HTRF signal were read with an Envision 2104 multi-label plate reader using excitation of 330 nm and emissions of 615 and 665 nm. Raw data were converted to nM cAMP by interpolation from a cAMP standard curve (as described in the manufacturer's assay protocol) and the percent effect was determined relative to a saturating concentration of the full agonist GLP-1 (1 μM) included on each plate. EC50 determinations were made from agonist dose response curves analyzed with a curve fitting program using a 4-parameter logistic dose response equation.

human GLP-1R [2] = biological target: human GLP-1R (Homo sapiens, UniProt P43220, G168S); experiment: CHO GLP-1R Clone H6—Assay 1: HTRF cAMP cell-based functional agonist assay (high GLP-1R density); settings: for EC50: read-out: Assay 1 EC50, CHO GLP-1R Clone H6, cAMP HTRF, geometric mean; for Emax: read-out: Assay 1 Emax (%), CHO GLP-1R Clone H6, relative to saturating concentration of full agonist GLP-1 (1 μM), arithmetic mean
Chain of human GLP-1R (Homo sapiens, UniProt P43220, G168S) (P43220 24-463 G168S limits assumed): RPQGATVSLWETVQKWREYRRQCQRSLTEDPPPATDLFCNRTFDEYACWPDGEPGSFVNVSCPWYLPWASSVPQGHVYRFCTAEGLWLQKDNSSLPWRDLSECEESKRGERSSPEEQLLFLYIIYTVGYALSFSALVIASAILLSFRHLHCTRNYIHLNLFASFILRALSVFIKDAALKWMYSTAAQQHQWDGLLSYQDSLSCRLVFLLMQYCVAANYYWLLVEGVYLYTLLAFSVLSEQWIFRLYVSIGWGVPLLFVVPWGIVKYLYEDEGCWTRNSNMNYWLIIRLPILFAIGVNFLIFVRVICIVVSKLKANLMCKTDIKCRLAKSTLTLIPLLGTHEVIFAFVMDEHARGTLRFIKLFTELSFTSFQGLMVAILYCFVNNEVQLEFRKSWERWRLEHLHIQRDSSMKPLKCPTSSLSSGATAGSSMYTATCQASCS

Chain of human GLP-1R (Homo sapiens (Human), UniProt P43220, L260F) (P43220 24-463 L260F): as the sequence (P43220 24-463 G168S limits assumed) above, with S145G, L237F counted along it

Compound	EC50 (human GLP-1R [1]) [nM]	Emax (human GLP-1R [1]) [%]	EC50 (human GLP-1R [2]) [nM]	Emax (human GLP-1R [2]) [%]
CCn1cncc1Cn1c(CN2CCN(c3cccc(OCc4ccc(Cl)cc4F)n3)C[C@@H]2C)nc2ccc(C(=O)O)cc21 [Example 10A-67, 2-{[(2S)-4-{6-[(4-chloro-2-fluorobenzyl)oxy]pyridin-2-yl}-2-methylpiperazin-1-yl]methyl}-1-[(1-ethyl-1H-imidazol-5-yl)methyl]-1H-benzimidazole-6-carboxylic acid]	6.8	93	0.59	83
CCn1nncc1Cn1c(CN2CCC(c3cccc(OCc4ccc(C#N)cc4F)n3)CC2)nc2ccc(C(=O)O)cc21 [Example 10A-69, 2-[(4-{6-[(4-cyano-2-fluorobenzyl)oxy]pyridin-2-yl}piperidin-1-yl)methyl]-1-[(1-ethyl-1H-1,2,3-triazol-5-yl)methyl]-1H-benzimidazole-6-carboxylic acid]	20	87	2	84
O=C(O)c1ccc2nc(CN3CCC(c4cccc(OCc5ccc(Cl)cc5F)n4)CC3)n([C@H]3CCOC3)c2c1 [Example 10A-71]	5800	85	190	62
O=C(O)c1ccc2nc(CN3CCC(c4cccc(OCc5ccc(Cl)cc5F)n4)CC3)n(C[C@@H]3CCCO3)c2c1 [Example 10A-73, 2-[(4-{6-[(4-chloro-2-fluorobenzyl)oxy]pyridin-2-yl}piperidin-1-yl)methyl]-1-[(2S)-tetrahydrofuran-2-ylmethyl]-1H-benzimidazole-6-carboxylic acid]	88	82	8.6	78
O=C(O)c1ccc2nc(CN3CCN(c4cccc(OCc5ccc(Cl)cc5F)n4)CC3)n(C[C@@H]3CCO3)c2n1 [Example 10A-74, 2-[(4-{6-[(4-chloro-2-fluorobenzyl)oxy]pyridin-2-yl}piperazin-1-yl)methyl]-3-[(2S)-oxetan-2-ylmethyl]-3H-imidazo[4,5-b]pyridine-5-carboxylic acid]	9.7	100	0.9	94
CCn1cncc1Cn1c(CN2CCC(c3cccc(OCc4ccc(C#N)cc4F)n3)CC2)nc2ccc(C(=O)O)nc21 [Example 10A-75]	13	91	0.95	95
Cn1cncc1Cn1c(CN2CCC(c3cccc(OCc4ccc(C#N)cc4F)n3)CC2)nc2ccc(C(=O)O)nc21 [Example 10A-76]	51	95	2.9	79
N#Cc1ccc(COc2cccc(N3CCN(Cc4nc5ccc(C(=O)O)nc5n4C[C@@H]4CCO4)CC3)n2)c(F)c1 [Example 10A-77, 2-[(4-{6-[(4-cyano-2-fluorobenzyl)oxy]pyridin-2-yl}piperazin-1-yl)methyl]-3-[(2S)-oxetan-2-ylmethyl]-3H-imidazo[4,5-b]pyridine-5-carboxylic acid]	10	120	0.96	100
N#Cc1ccc(COc2cccc(C3CCN(Cc4nc5ccc(C(=O)O)cc5n4C[C@@H]4CCO4)CC3)n2)cc1 [Example 10A-78, 2-[(4-{6-[(4-cyanobenzyl)oxy]pyridin-2-yl}piperidin-1-yl)methyl]-1-[(2S)-oxetan-2-ylmethyl]-1H-benzimidazole-6-carboxylic acid]	28	88	1.6	83
O=C(O)c1ccc2nc(CN3CCC(c4cccc(OCc5ccc(Cl)cc5F)n4)CC3)n(CCN3CCOC3=O)c2c1 [Example 11A-20]	270		15	

More lines, now with the values ahead:

EC50 (human GLP-1R [1]) [nM]	Emax (human GLP-1R [1]) [%]	EC50 (human GLP-1R [2]) [nM]	Emax (human GLP-1R [2]) [%]	Compound
230	77	8.1	64	CC1(Cn2c(CN3CCC(c4cccc(OCc5ccc(Cl)cc5F)n4)CC3)nc3ccc(C(=O)O)cc32)CCOC1 (stereo not shown) [Example 11A-14, 2-[(4-{6-[(4-chloro-2-fluorobenzyl)oxy]pyridin-2-yl}piperidin-1-yl)methyl]-1-[(3-methyltetrahydrofuran-3-yl)methyl]-1H-benzimidazole-6-carboxylic acid]
94	92	9.4	69	O=C(O)c1ccc2nc(CN3CCC(c4cccc(OCc5ccc(Cl)cc5F)n4)CC3)n(Cc3cn[nH]c3)c2c1 [Example 11A-15, 2-[(4-{6-[(4-chloro-2-fluorobenzyl)oxy]pyridin-2-yl}piperidin-1-yl)methyl]-1-(1H-pyrazol-4-ylmethyl)-1H-benzimidazole-6-carboxylic acid]
410	75	11	71	O=C(O)c1ccc2nc(CN3CCC(c4cccc(OCc5ccc(Cl)cc5F)n4)CC3)n(CC3CCC3)c2c1 [Example 11A-16, 2-[(4-{6-[(4-chloro-2-fluorobenzyl)oxy]pyridin-2-yl}piperidin-1-yl)methyl]-1-(cyclobutylmethyl)-1H-benzimidazole-6-carboxylic acid]
380	96	11	65	O=C(O)c1ccc2nc(CN3CCC(c4cccc(OCc5ccc(Cl)cc5F)n4)CC3)n(CCn3cncn3)c2c1 [Example 11A-17, 2-[(4-{6-[(4-chloro-2-fluorobenzyl)oxy]pyridin-2-yl}piperidin-1-yl)methyl]-1-[2-(1H-1,2,4-triazol-1-yl)ethyl]-1H-benzimidazole-6-carboxylic acid]
270	92	14	80	CCOC(C)Cn1c(CN2CCC(c3cccc(OCc4ccc(Cl)cc4F)n3)CC2)nc2ccc(C(=O)O)cc21 (stereo not shown) [Example 11A-18, 2-[(4-{6-[(4-chloro-2-fluorobenzyl)oxy]pyridin-2-yl}piperidin-1-yl)methyl]-1-(2-ethoxypropyl)-1H-benzimidazole-6-carboxylic acid]
230	110	15	83	COCCn1cnnc1Cn1c(CN2CCC(c3cccc(OCc4ccc(Cl)cc4F)n3)CC2)nc2ccc(C(=O)O)cc21 [Example 11A-19, 2-[(4-{6-[(4-chloro-2-fluorobenzyl)oxy]pyridin-2-yl}piperidin-1-yl)methyl]-1-{[4-(2-methoxyethyl)-4H-1,2,4-triazol-3-yl]methyl}-1H-benzimidazole-6-carboxylic acid]
270	83	18	82	Cn1nccc1Cn1c(CN2CCC(c3cccc(OCc4ccc(Cl)cc4F)n3)CC2)nc2ccc(C(=O)O)cc21 [Example 11A-21, 2-[(4-{6-[(4-chloro-2-fluorobenzyl)oxy]pyridin-2-yl}piperidin-1-yl)methyl]-1-[(1-methyl-1H-pyrazol-5-yl)methyl]-1H-benzimidazole-6-carboxylic acid]
200	81	21	82	COC(C)(C)Cn1c(CN2CCC(c3cccc(OCc4ccc(Cl)cc4F)n3)CC2)nc2ccc(C(=O)O)cc21 [Example 11A-22, 2-[(4-{6-[(4-chloro-2-fluorobenzyl)oxy]pyridin-2-yl}piperidin-1-yl)methyl]-1-(2-methoxy-2-methylpropyl)-1H-benzimidazole-6-carboxylic acid]
330	96	25	78	O=C(O)c1ccc2nc(CN3CCC(c4cccc(OCc5ccc(Cl)cc5F)n4)CC3)n(Cc3c[nH]nn3)c2c1 [Example 11A-23, 2-[(4-{6-[(4-chloro-2-fluorobenzyl)oxy]pyridin-2-yl}piperidin-1-yl)methyl]-1-(1H-1,2,3-triazol-4-ylmethyl)-1H-benzimidazole-6-carboxylic acid]
450	89	28	80	O=C(O)c1ccc2nc(CN3CCC(c4cccc(OCc5ccc(Cl)cc5F)n4)CC3)n(Cc3cc[nH]n3)c2c1 [Example 11A-24, 2-[(4-{6-[(4-chloro-2-fluorobenzyl)oxy]pyridin-2-yl}piperidin-1-yl)methyl]-1-(1H-pyrazol-3-ylmethyl)-1H-benzimidazole-6-carboxylic acid]
360	89	30	77	O=C(O)c1ccc2nc(CN3CCC(c4cccc(OCc5ccc(Cl)cc5F)n4)CC3)n(Cc3nnc[nH]3)c2c1 [Example 11A-25, 2-[(4-{6-[(4-chloro-2-fluorobenzyl)oxy]pyridin-2-yl}piperidin-1-yl)methyl]-1-(4H-1,2,4-triazol-3-ylmethyl)-1H-benzimidazole-6-carboxylic acid]
1100	79	36	73	O=C(O)c1ccc2nc(CN3CCC(c4cccc(OCc5ccc(Cl)cc5F)n4)CC3)n(C3CCOC3)c2c1 (stereo not shown) [Example 11A-26, 2-[(4-{6-[(4-chloro-2-fluorobenzyl)oxy]pyridin-2-yl}piperidin-1-yl)methyl]-1-(tetrahydrofuran-3-yl)-1H-benzimidazole-6-carboxylic acid]
490	98	44	72	CC(F)(F)Cn1c(CN2CCC(c3cccc(OCc4ccc(Cl)cc4F)n3)CC2)nc2ccc(C(=O)O)cc21 [Example 11A-27, 2-[(4-{6-[(4-chloro-2-fluorobenzyl)oxy]pyridin-2-yl}piperidin-1-yl)methyl]-1-(2,2-difluoropropyl)-1H-benzimidazole-6-carboxylic acid]
1200	82	54	77	O=C(O)c1ccc2nc(CN3CCC(c4cccc(OCc5ccc(Cl)cc5F)n4)CC3)n(CCn3cccn3)c2c1 [Example 11A-28, 2-[(4-{6-[(4-chloro-2-fluorobenzyl)oxy]pyridin-2-yl}piperidin-1-yl)methyl]-1-[2-(1H-pyrazol-1-yl)ethyl]-1H-benzimidazole-6-carboxylic acid]
